From ChEMBL document CHEMBL1649500, “GS-9191 is a novel topical prodrug of the nucleotide analog 9-(2-phosphonylmethoxyethyl)guanine with antiproliferative activity and possible utility in the treatment of human papillomavirus lesions” (Antimicrob Agents Chemother, 2009)
Active and inactive are the calls of the source. The calls are words filed in the database; no cut-off is given here.

How the values were obtained:
SiHa [1] = assay: Antiproliferative activity against HPV-transformed human SiHa cells after 7 days by SRB assay; format: functional, cell-based; conditions: 168 h
Ca-Ski [2] = assay: Antiproliferative activity against HPV-transformed human CaSki cells after 7 days by SRB assay; format: functional, cell-based; conditions: 168 h
HeLa [3] = assay: Antiproliferative activity against HPV-transformed human HeLa cells after 7 days by SRB assay; format: functional, cell-based; conditions: 168 h
[4] = Antiproliferative activity against HPV-transformed human MS751 cells after 7 days by SRB assay; format: functional, cell-based; conditions: MS751, 168 h
[5] = Antiproliferative activity against HPV-transformed human C4I cells after 7 days by SRB assay; format: functional, cell-based; conditions: C-4I, 168 h
ME-180 = assay: Antiproliferative activity against HPV-transformed human ME180 cells after 7 days by SRB assay; format: functional, cell-based; conditions: ME-180, 168 h
HT-3 = assay: Antiproliferative activity against HPV-non-transformed human HT3 cells after 7 days by SRB assay; format: functional, cell-based; conditions: HT-3, 168 h
SCC-4 = assay: Antiproliferative activity against HPV-non-transformed human SCC4 cells after 7 days by SRB assay; format: functional, cell-based; conditions: SCC-4, 168 h
SCC-9 = assay: Antiproliferative activity against HPV-non-transformed human SCC9 cells after 7 days by SRB assay; format: functional, cell-based; conditions: SCC-9, 168 h
[6] = Antiproliferative activity against human PHK after 7 days by SRB assay
[7] = Antiproliferative activity against human CK after 7 days by SRB assay
[8] = Antiproliferative activity against NHBE cells after 7 days by SRB assay; format: cell-based; conditions: Homo sapiens, 168 h
[9] = Antiproliferative activity against human lung fibroblast after 7 days by SRB assay; conditions: 168 h
[10] = Antiproliferative activity against PHF after 7 days by SRB assay; design: species or system Homo sapiens
SiHa [11] = assay: Inhibition of DNA synthesis in HPV-transformed human SiHa cells assessed as decrease in BrdU incorporation after 3 hrs by ELISA; format: functional, cell-based
SiHa [12] = assay: Inhibition of DNA synthesis in HPV-transformed human SiHa cells assessed as decrease in BrdU incorporation after 3 to 6 hrs by ELISA; format: functional, cell-based
SiHa [13] = assay: Inhibition of DNA synthesis in HPV-transformed human SiHa cells assessed as decrease in BrdU incorporation after 6 to 9 hrs by ELISA; format: functional, cell-based
SiHa [14] = assay: Inhibition of DNA synthesis in HPV-transformed human SiHa cells assessed as decrease in BrdU incorporation after 24 to 27 hrs by ELISA; format: functional, cell-based
SiHa [15] = assay: Inhibition of DNA synthesis in HPV-transformed human SiHa cells assessed as decrease in BrdU incorporation after 48 to 51 hrs by ELISA; format: functional, cell-based
SiHa [16] = assay: Inhibition of DNA synthesis in HPV-transformed human SiHa cells assessed as decrease in BrdU incorporation after 72 to 75 hrs by ELISA; format: functional, cell-based
SiHa [17] = assay: Cell cycle arrest in HPV-transformed human SiHa cells assessed as accumulation at G0/G1 phase at 10 times EC50 after 48 hrs by flow cytometry; format: functional
SiHa [18] = assay: Cell cycle arrest in HPV-transformed human SiHa cells assessed as accumulation at S phase at 10 times EC50 after 48 hrs by flow cytometry; format: functional
SiHa [19] = assay: Cell cycle arrest in HPV-transformed human SiHa cells assessed as accumulation at G2/M phase at 10 times EC50 after 48 hrs by flow cytometry; format: functional
[20] = Cell cycle arrest in human PHK cells assessed as accumulation at G0/G1 phase at 10 times EC50 after 48 hrs by flow cytometry; format: cell-based
[21] = Cell cycle arrest in human PHK cells assessed as accumulation at S phase at 10 times EC50 after 48 hrs by flow cytometry; format: cell-based
[22] = Cell cycle arrest in human PHK cells assessed as accumulation at G2/M phase at 10 times EC50 after 48 hrs by flow cytometry; format: cell-based
Ca-Ski [23] = assay: Cell cycle arrest in HPV-transformed human CaSki cells assessed as accumulation at S phase at 10 times EC50 after 48 hrs by flow cytometry; format: functional, cell-based
A-431 = assay: Cell cycle arrest in human A431 cells assessed as accumulation at S phase at 10 times EC50 after 48 hrs by flow cytometry; format: functional, cell-based
SiHa [24] = assay: Induction of apoptosis in HPV-transformed human SiHa cells assessed as viable cells at 2.7 nM after 3 days by propidium iodide staining-based flow cytometry; format: functional; conditions: 72 h, read-out: Activity
SiHa [25] = assay: Induction of apoptosis in HPV-transformed human SiHa cells assessed as viable cells at 27 nM after 3 days by propidium iodide staining-based flow cytometry; format: functional; conditions: 72 h, read-out: Activity
SiHa [26] = assay: Induction of apoptosis in HPV-transformed human SiHa cells assessed as viable cells at 270 nM after 3 days by propidium iodide staining-based flow cytometry; format: functional; conditions: 72 h, read-out: Activity
SiHa [27] = assay: Induction of apoptosis in HPV-transformed human SiHa cells assessed as apoptotic cells at 2.7 nM after 3 days by propidium iodide staining-based flow cytometry; format: functional
SiHa [28] = assay: Induction of apoptosis in HPV-transformed human SiHa cells assessed as apoptotic cells at 27 nM after 3 days by propidium iodide staining-based flow cytometry; format: functional
SiHa [29] = assay: Induction of apoptosis in HPV-transformed human SiHa cells assessed as apoptotic cells at 270 nM after 3 days by propidium iodide staining-based flow cytometry; format: functional
SiHa [30] = assay: Induction of apoptosis in HPV-transformed human SiHa cells assessed as viable cells at 2.7 nM after 7 days by propidium iodide staining-based flow cytometry; format: functional; conditions: 168 h, read-out: Activity
SiHa [31] = assay: Induction of apoptosis in HPV-transformed human SiHa cells assessed as viable cells at 27 nM after 7 days by propidium iodide staining-based flow cytometry; format: functional; conditions: 168 h, read-out: Activity
SiHa [32] = assay: Induction of apoptosis in HPV-transformed human SiHa cells assessed as viable cells at 270 nM after 7 days by propidium iodide staining-based flow cytometry; format: functional; conditions: 168 h, read-out: Activity
SiHa [33] = assay: Induction of apoptosis in HPV-transformed human SiHa cells assessed as apoptotic cells at 2.7 nM after 7 days by propidium iodide staining-based flow cytometry; format: functional
SiHa [34] = assay: Induction of apoptosis in HPV-transformed human SiHa cells assessed as apoptotic cells at 27 nM after 7 days by propidium iodide staining-based flow cytometry; format: functional
SiHa [35] = assay: Induction of apoptosis in HPV-transformed human SiHa cells assessed as apoptotic cells at 270 nM after 7 days by propidium iodide staining-based flow cytometry; format: functional
Ca-Ski [36] = assay: Induction of apoptosis in HPV-transformed human CaSki cells at 2.7 to 270 nM after 3 to 7 days by propidium iodide staining-based flow cytometry; format: functional, cell-based
HeLa [37] = assay: Induction of apoptosis in HPV-transformed human HeLa cells at 2.7 to 270 nM after 3 to 7 days by propidium iodide staining-based flow cytometry; format: functional, cell-based
[38] = test system: Cottontail rabbit papillomavirus; assay: Antiviral activity against Cottontail rabbit papillomavirus infected in New Zealand White rabbit assessed as effect on viral growth rate at 0.5% administered topically measured on day 48; format: functional; conditions: Kappapapillomavirus 2
[39] = test system: Cottontail rabbit papillomavirus; assay: Antiviral activity against Cottontail rabbit papillomavirus infected in New Zealand White rabbit assessed as decrease in pailloma size at 0.3% administered topically measured on day 48; format: functional, Kappapapillomavirus 2
[40] = test system: Cottontail rabbit papillomavirus; assay: Antiviral activity against Cottontail rabbit papillomavirus infected in New Zealand White rabbit assessed as decrease in pailloma size at 0.1% administered topically measured on day 48; format: functional, Kappapapillomavirus 2
[41] = test system: Cottontail rabbit papillomavirus; assay: Antiviral activity against Cottontail rabbit papillomavirus infected in New Zealand White rabbit assessed as decrease in pailloma size at 0.01% administered topically measured on day 48; format: functional, Kappapapillomavirus 2
[42] = Drug metabolism in human lung fibroblast assessed as cPrPMEDAP AUC (0 to 32 hrs) at 1 uM by HPLC analysis; format: ADME; design: dose 1 uM, time < 32 hr
SiHa [43] = assay: Drug metabolism in human SiHa cells assessed as PMEG AUC (0 to 32 hrs) at 1 uM by HPLC analysis; format: ADME, cell-based; design: dose 1 uM, time < 32 hr
[44] = Drug metabolism in human CaSki cells assessed as PMEG AUC (0 to 32 hrs) at 1 uM by HPLC analysis; format: ADME, cell-based; design: time < 32 hr, dose 1 uM; conditions: ca-ski
[45] = Drug metabolism in human CK cells assessed as PMEG AUC (0 to 32 hrs) at 1 uM by HPLC analysis; format: ADME, cell-based; design: time < 32 hr, dose 1 uM

CC(C)COC(=O)[C@H](Cc1ccccc1)NP(=O)(COCCn1cnc2c(NC3CC3)nc(N)nc21)N[C@@H](Cc1ccccc1)C(=O)OCC(C)C [GS-9191]
EC50 (SiHa [1]): 0.03 nM
EC50 (Ca-Ski [2]): 2.03 nM
EC50 (HeLa [3]): 0.71 nM
EC50 [4]: 0.04 nM
EC50 [5]: 0.44 nM
EC50 (ME-180): 1.83 nM
EC50 (HT-3): 5.42 nM
EC50 (SCC-4): 5.03 nM
EC50 (SCC-9): 15.3 nM
EC50 [6]: 2.91 nM
EC50 [7]: 2.1 nM
EC50 [8]: 0.98 nM
EC50 [9]: 7.44 nM
EC50 [10]: 4.75 nM
EC50 (SiHa [11]): > 74 nM
EC50 (SiHa [12]): 7.8 nM
EC50 (SiHa [13]): 1 nM
EC50 (SiHa [14]): 1.8 nM
EC50 (SiHa [15]): 7.9 nM
EC50 (SiHa [16]): 11.5 nM
Activity (SiHa [17]): 27.1%
Activity (SiHa [18]): 65.6%
Activity (SiHa [19]): 7.3%
Activity [20]: 56.4%
Activity [21]: 36.1%
Activity [22]: 7.5%
Activity (Ca-Ski [23]): Active
Activity (A-431): Active
viability at 0.0027 µM (SiHa [24]): 95.2%
viability at 0.027 µM (SiHa [25]): 83.7%
viability at 0.27 µM (SiHa [26]): 79.6%
Activity (SiHa [27]): 3.4%
Activity (SiHa [28]): 14.6%
Activity (SiHa [29]): 19.6%
viability at 0.0027 µM (SiHa [30]): 65.5%
viability at 0.027 µM (SiHa [31]): 17.4%
viability at 0.27 µM (SiHa [32]): 15.5%
Activity (SiHa [33]): 33.1%
Activity (SiHa [34]): 82.2%
Activity (SiHa [35]): 84.1%
Activity (Ca-Ski [36]): Active
Activity (HeLa [37]): Active
Activity [38]: inactive
inhibition (INH) [39]: 70%
inhibition (INH) [40]: 70%
inhibition (INH) [41]: 53%
AUC [42]: 835 µM·h
AUC (SiHa [43]): 1960 µM·h
AUC [44]: 170 µM·h
AUC [45]: 33.4 µM·h
